Measurements from PubChem BioAssay AID248 (DTP/NCI, 2004).
Values joined by “and” are separate entries in the source; they are usually repeats but may differ in a detail not shown here. Equal values may be shown once. Toxic doses and inconclusive results are not listed. No stated cut-off is given here; in the data, active means T/C of 150% or more; inactive means T/C below 125%.

Test system: L1210 leukemia ip in BDF1 mice, survival T/C
Assay: NCI In Vivo Anticancer Drug Screen. Data for tumor model L1210 Leukemia (intraperitoneal) in B6D2F1 (BDF1) mice
Conditions: endpoint: mean survival time, higher = longer survival
Method in brief: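 Ratio derived from survival: compound-dosed mice over vehicle-dosed mice, all bearing a transplantable tumor.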

[1] = dose: 100.0 mg/kg/injection, schedule: Q04DX003 (ip), vehicle: saline with Tween-80
[2] = dose: 200.0 mg/kg/injection, schedule: Q04DX003 (ip), vehicle: saline with Tween-80
[3] = dose: 100.0 mg/kg/injection, schedule: Q04DX002 (ip), vehicle: gum acacia
[4] = dose: 200.0 mg/kg/injection, schedule: Q04DX002 (ip), vehicle: gum acacia
[5] = dose: 400.0 mg/kg/injection, schedule: Q04DX002 (ip), vehicle: gum acacia
[6] = dose: 50.0 mg/kg/injection, schedule: Q01DX001 (ip), vehicle: saline
[7] = dose: 100.0 mg/kg/injection, schedule: Q01DX001 (ip), vehicle: saline
[8] = dose: 200.0 mg/kg/injection, schedule: Q01DX001 (ip), vehicle: saline
[9] = dose: 100.0 mg/kg/injection, schedule: Q01DX009 (ip), vehicle: saline
[10] = dose: 200.0 mg/kg/injection, schedule: Q01DX009 (ip), vehicle: saline
[11] = dose: 100.0 mg/kg/injection, schedule: Q04DX003 (ip), vehicle: saline
[12] = dose: 200.0 mg/kg/injection, schedule: Q04DX003 (ip), vehicle: saline
[13] = dose: 400.0 mg/kg/injection, schedule: Q04DX003 (ip), vehicle: saline
[14] = dose: 100.0 mg/kg/injection, schedule: Q01DX009 (ip), vehicle: Klucel (hydroxypropylcellulose) (HPC)
[15] = dose: 200.0 mg/kg/injection, schedule: Q01DX009 (ip), vehicle: Klucel (hydroxypropylcellulose) (HPC)
[16] = dose: 400.0 mg/kg/injection, schedule: Q01DX001 (ip), vehicle: saline

Measured: T/C

CCCCCCCCCCCCCCCCCCOc1cccc(C(F)(F)F)c1
inactive: dose: 100.0 mg/kg/injection, schedule: Q01DX001 (ip), vehicle: saline with Tween-80 89 % of control | dose: 200.0 mg/kg/injection, schedule: Q01DX001 (ip), vehicle: saline with Tween-80 91 % of control

C=C(Cl)CN(CCCC(=O)O)c1ccccc1
inactive: dose: 100.0 mg/kg/injection, schedule: Q01DX009 (ip), vehicle: other 108 % of control | dose: 100.0 mg/kg/injection, schedule: Q04DX003 (ip), vehicle: other 98 % of control | dose: 200.0 mg/kg/injection, schedule: Q01DX009 (ip), vehicle: other 107 % of control | dose: 200.0 mg/kg/injection, schedule: Q04DX003 (ip), vehicle: other 106 % of control | dose: 400.0 mg/kg/injection, schedule: Q01DX009 (ip), vehicle: other 102 % of control | dose: 400.0 mg/kg/injection, schedule: Q04DX003 (ip), vehicle: other 108 % of control

Cc1cc(/C=C/c2ccc3cc(N(C)C)ccc3[n+]2C)c(C)n1-c1ccccc1
inactive: dose: 1.56 mg/kg/injection, schedule: Q01DX009 (ip), vehicle: saline with Tween-80 112 % of control

Cc1ccc(S(=O)(=O)OC2CC(C(=O)O)N(S(=O)(=O)c3ccc(C)cc3)C2)cc1 (configuration not stated)
inactive: dose: 100.0 mg/kg/injection, schedule: Q01DX009 (ip), vehicle: saline with Tween-80 104 % of control | [1] 98 % of control and 92 % of control | dose: 200.0 mg/kg/injection, schedule: Q01DX009 (ip), vehicle: saline with Tween-80 95 % of control | [2] 97 % of control and 101 % of control | dose: 400.0 mg/kg/injection, schedule: Q04DX003 (ip), vehicle: saline with Tween-80 96 % of control and 107 % of control

C1=Nc2ccccc2/C1=C/C=C/c1ccccc1
inactive: [3] 88 % of control | [4] 95 % of control | [5] 95 % of control

CC1CCOS(=O)O1 (configuration not stated)
inactive: dose: 20.0 mg/kg/injection, schedule: Q01DX010 (ip), vehicle: saline 96 % of control and 98 % of control | dose: 24.0 mg/kg/injection, schedule: Q01DX Z (ip), vehicle: carboxymethylcellulose (CMC) 104 % of control and 92 % of control | dose: 36.0 mg/kg/injection, schedule: Q01DX Z (ip), vehicle: carboxymethylcellulose (CMC) 95 % of control and 109 % of control | dose: 40.0 mg/kg/injection, schedule: Q01DX010 (ip), vehicle: saline 95 % of control and 96 % of control | [6] 98 % of control | dose: 54.0 mg/kg/injection, schedule: Q01DX Z (ip), vehicle: carboxymethylcellulose (CMC) 101 % of control and 111 % of control | dose: 80.0 mg/kg/injection, schedule: Q01DX010 (ip), vehicle: saline 98 % of control and 104 % of control | dose: 81.0 mg/kg/injection, schedule: Q01DX Z (ip), vehicle: carboxymethylcellulose (CMC) 96 % of control and 104 % of control | [7] 98 % of control and 102 % of control | [8] 104 % of control

OCCOCC#CCOCCO
inactive: [9] 102 % of control | [10] 96 % of control | dose: 400.0 mg/kg/injection, schedule: Q01DX009 (ip), vehicle: saline 98 % of control

CNC(C)(C)CO
inactive: [11] 100 % of control | [12] 107 % of control | [13] 104 % of control

NP(Cl)(c1ccccc1)(c1ccccc1)c1ccccc1
inactive: dose: 0.2 mg/kg/injection, schedule: Q04DX003 (ip), vehicle: Klucel (hydroxypropylcellulose) (HPC) 96 % of control | dose: 0.39 mg/kg/injection, schedule: Q04DX003 (ip), vehicle: Klucel (hydroxypropylcellulose) (HPC) 99 % of control | dose: 0.78 mg/kg/injection, schedule: Q04DX003 (ip), vehicle: Klucel (hydroxypropylcellulose) (HPC) 97 % of control

O=[N+]([O-])c1ccc(CSCc2ccccc2)cc1
inactive: dose: 50.0 mg/kg/injection, schedule: Q01DX001 (ip), vehicle: carboxymethylcellulose (CMC) 102 % of control | dose: 100.0 mg/kg/injection, schedule: Q01DX001 (ip), vehicle: carboxymethylcellulose (CMC) 102 % of control | dose: 200.0 mg/kg/injection, schedule: Q01DX001 (ip), vehicle: carboxymethylcellulose (CMC) 109 % of control | dose: 400.0 mg/kg/injection, schedule: Q01DX001 (ip), vehicle: carboxymethylcellulose (CMC) 98 % of control

O=C(Nc1ccc(Cl)cc1)c1ccc([N+](=O)[O-])cc1
inactive: [3] 106 % of control | [4] 102 % of control | [5] 98 % of control

c1ccc(-c2ccc([Si](c3ccccc3)(c3ccccc3)c3ccc(-c4ccccc4)cc3)cc2)cc1
inactive: dose: 50.0 mg/kg/injection, schedule: Q01DX009 (ip), vehicle: Klucel (hydroxypropylcellulose) (HPC) 104 % of control | dose: 50.0 mg/kg/injection, schedule: Q04DX003 (ip), vehicle: Klucel (hydroxypropylcellulose) (HPC) 94 % of control | [14] 93 % of control | dose: 100.0 mg/kg/injection, schedule: Q04DX003 (ip), vehicle: Klucel (hydroxypropylcellulose) (HPC) 96 % of control | [15] 87 % of control | dose: 200.0 mg/kg/injection, schedule: Q04DX003 (ip), vehicle: Klucel (hydroxypropylcellulose) (HPC) 98 % of control

COC(=O)/C=C(\C)Nc1ccc(-c2ccccc2)cc1
inactive: dose: 50.0 mg/kg/injection, schedule: Q01DX009 (ip), vehicle: saline 103 % of control | [7] 97 % of control | [9] 102 % of control | [11] 101 % of control | [8] 95 % of control | [10] 100 % of control | [12] 97 % of control | [16] 92 % of control | [13] 97 % of control

C#CCN(CC#C)C(=O)Nc1ccc(Cl)cc1
inactive: dose: 25.0 mg/kg/injection, schedule: Q04DX002 (ip), vehicle: saline with Tween-80 96 % of control | dose: 50.0 mg/kg/injection, schedule: Q04DX002 (ip), vehicle: saline with Tween-80 96 % of control | dose: 100.0 mg/kg/injection, schedule: Q04DX002 (ip), vehicle: saline with Tween-80 99 % of control and 106 % of control

O=C1OCc2ccccc2C1O (configuration not stated)
inactive: [7] 111 % of control | [8] 94 % of control | [16] 94 % of control

CCCCCCC1CCC(C(=O)O)CC1 (configuration not stated)
inactive: dose: 100.0 mg/kg/injection, schedule: Q01DX001 (ip), vehicle: Klucel (hydroxypropylcellulose) (HPC) 96 % of control | [14] 98 % of control | dose: 200.0 mg/kg/injection, schedule: Q01DX001 (ip), vehicle: Klucel (hydroxypropylcellulose) (HPC) 97 % of control | [15] 98 % of control | dose: 400.0 mg/kg/injection, schedule: Q01DX001 (ip), vehicle: Klucel (hydroxypropylcellulose) (HPC) 97 % of control | dose: 400.0 mg/kg/injection, schedule: Q01DX009 (ip), vehicle: Klucel (hydroxypropylcellulose) (HPC) 89 % of control

OC1CC=CC=CC1
inactive: dose: 75.0 mg/kg/injection, schedule: Q01DX001 (ip), vehicle: saline 94 % of control | dose: 150.0 mg/kg/injection, schedule: Q01DX001 (ip), vehicle: saline 97 % of control

CC1=NC2(CCCCC2)C[N+]1(Cc1ccccc1)Cc1ccccc1
inactive: [1] 94 % of control

[N-]=[N+]=NC(c1ccccc1)C(I)c1ccccc1 (configuration not stated)
inactive: [6] 103 % of control | [7] 103 % of control | [8] 108 % of control | [16] 97 % of control

N#C/C(=C\c1cc(Cl)cc(Cl)c1O)c1ccc([N+](=O)[O-])cc1
inactive: [1] 90 % of control | [2] 92 % of control

C=CC[P+](Cc1ccccc1)(c1ccccc1)c1ccccc1
inactive: dose: 3.13 mg/kg/injection, schedule: Q01DX009 (ip), vehicle: saline with Tween-80 98 % of control | dose: 6.25 mg/kg/injection, schedule: Q01DX009 (ip), vehicle: saline with Tween-80 107 % of control | dose: 12.5 mg/kg/injection, schedule: Q01DX009 (ip), vehicle: saline with Tween-80 104 % of control and 115 % of control
